Measured values as given in paper PMC7762498, “Demethoxycurcumin analogue DMC-BH exhibits potent anticancer effects on orthotopic glioblastomas” (Aging (Albany NY), 2020).

Tests used:
U87 glioma cells = experiment: MTT cell viability assay, U87; type: cell-based; conditions: Homo sapiens, U-87 MG, 72 hours
Procedure: (§1) To investigate the cytotoxicity of DMC-BH on glioma cells (Figure 1A), we used an MTT assay to assess viability changes in SHG-44, C6, U251, U87, A172 and primary glioma cells treated with various concentrations of DMC-BH for 24, 48 or 72 hours (Figure 1B–1H). […] U251 and SHG-44 cells were more sensitive to DMC-BH. We then used the human glial cell line, HEB, to evaluate the toxicity of DMC-BH in normal cells. […] DMC-BH was not toxic to normal cells.
(§2) The human GBM U87-luc cell line was purchased from the Shanghai Sunbio Medical Biotechnology Co., Ltd. (Shanghai, China). Cells were cultured in DMEM supplemented with 10% fetal bovine serum (FBS) and maintained in an incubator at 37° C and 5% CO2. After cells were routinely passaged at 2- to 3-day intervals, animal experiments were carried out when the cells entered exponential growth phase. Rat C6, human SHG-44, U87, A172 and U251 glioma cells were obtained from the Shanghai Institute of Cell Biology, Chinese Academy of Sciences (Shanghai, China). Primary glioma cells were preserved by our laboratory from previous studies. […]
(§3) Glioblastoma cells were seeded into 96-well plates and exposed to vehicle (PBS) or different concentrations of DMC-BH for 24, 48 or 72 hours. Cell viability was measured using an MTT assay and was expressed as a ratio to the absorbance value of the control cells at 570 nm.

A172 glioma cells = experiment: MTT cell viability assay, A172; type: cell-based; conditions: Homo sapiens, A 172, 72 hours
Procedure: as §1, §2, §3

in vivo = conditions: female, ICR, mouse, ip
ICR mice = experiment: in vivo; conditions: mouse; for Mortality rate (%) / No. of dead mice: female, ICR, 14 days
CYP-450 = experiment: CYP-450-related metabolism; type: in vitro ADME
Plasma protein binding = type: in vitro ADME
C6 glioma cells = experiment: MTT cell viability assay, C6; type: cell-based; conditions: Rattus norvegicus, 72 hours
Procedure: as §1, §2, §3

primary glioma cells = experiment: MTT cell viability assay, primary glioma cells; type: cell-based; conditions: 72 h
Procedure: as §1, §2, §3

SHG-44 glioma cells = experiment: MTT cell viability assay, SHG-44; type: cell-based; conditions: Homo sapiens, SHG-44 cells, 72 hours
Procedure: as §1, §2, §3

U251 glioma cells = experiment: MTT cell viability assay, U251; type: cell-based; conditions: Homo sapiens, U-251, 72 hours
Procedure: as §1, §2, §3

[1] = tested on: human glial cell line, HEB; experiment: MTT assay on normal glial cells; type: cell-based; conditions: 24 hours of incubation with 32 μM
Procedure: as §1, §3

`COc1cc(C=CC(=O)CC(=O)C=Cc2ccc(O)c(CN3CCCC3)c2)ccc1O` [DMC-BH, 1-[4-Hydroxy-3-(pyrrolidin-1-ylmethyl)phenyl]-7-(4-hydroxy-3-methoxyphenyl) hepta-1,6-diene-3,5-dione] gave an IC50 (U87 glioma cells) of 4.77 µM, an IC50 (A172 glioma cells) of 5.68 µM and an LD50 at 14 days (in vivo) of 48.1 mg/kg. The “Mortality rate (%)” value (ICR mice; 5 mg/kg) was 0.0%, the “No. of dead mice” value (ICR mice; 5 mg/kg) was 0 and the “Mortality rate (%)” value (ICR mice; 10 mg/kg) was 0.0%. The “No. of dead mice” value (ICR mice; 10 mg/kg) was 0, the “Mortality rate (%)” value (ICR mice; 20 mg/kg) was 0.0% and the “No. of dead mice” value (ICR mice; 20 mg/kg) was 0. For the same molecule, the “Mortality rate (%)” value (ICR mice; 30 mg/kg) was 10.0%, the “No. of dead mice” value (ICR mice; 30 mg/kg) was 1 and the “abnormalities compared to the control mice” value (ICR mice) was “no abnormalities”. For the same molecule, the CYP-450-related metabolism (CYP-450) was “low”, the fraction unbound (Plasma protein binding) was 0.038 and the IC50 (C6 glioma cells) was 5.79 µM. For the same molecule, the IC50 (primary glioma cells; primary glioma cells sample 1, 72 hours) was 8.05 µM, the IC50 (primary glioma cells; primary glioma cells sample 2, 72 hours) was 4.61 µM and the IC50 (SHG-44 glioma cells) was 3.08 µM. For the same molecule, the IC50 (U251 glioma cells) was 2.52 µM and the “viability of HEB cells” value [1] was “not reduced markedly”.
